In patent US20240390369A1, “METHODS FOR DETERMINING RESPONSIVENESS TO TYK2 INHIBITORS” (Bristol-Myers Squibb Company, priority 2021, published 2024):

Test system: patients with psoriatic arthritis
Assay: Phase 2 trial in psoriatic arthritis: ACR20 response at week 16
Format: in vivo, human
Settings: for ACR20 response rate over time: placebo, sixteen-week treatment period; for Odds Ratio, ACR20 response status / Odds Ratio for ACR20 response: All patients
Experimental: In a double-blind Phase 2 trial, 203 patients with psoriatic arthritis were randomized into three groups: deucravacitinib 6 mg once daily (N=70), deucravacitinib 12 mg once daily (N=67), or placebo (N=66). All subjects had active psoriatic arthritis according to the Classification Criteria for Psoriatic Arthritis (CASPAR); for active disease, these criteria required ≥3 tender joint count, ≥3 swollen joint count, and a C-reactive protein level above 3 mg/L. Other inclusion criteria included the following: presence of at least one plaque psoriasis lesion, and prior treatment failure with a non-biologic disease modifying anti-rheumatic drug, a non-steroidal anti-inflammatory drug, or a steroid. With respect to treatment history, approximately 70% of subjects had not received prior treatment with a biologic and were biologic naïve, while up to 30% of subjects had failed or had been intolerant to one TNF-inhibitor (TNF=Tumor necrosis factor, also known as TNFα). Randomization was stratified by prior TNF-inhibitor use (experienced/naïve) and body weight (<90 kg and ≥90 kg).
Clinical measures included the Psoriasis […] (PASI) score for skin psoriasis, American College of Rheumatology 20 (ACR20) response, Psoriatic Arthritis Disease Activity Score (PASDAS), Health Assessment Questionnaire-Disability Index (HAQ-DI), and Disease Activity Score 28 CRP (DAS28). To evaluate the predictive value of different protein measurements for the clinical response to deucravacitinib, baseline protein concentrations for responders and non-responders, as defined by ACR20 or PASI75 at week 16, were compared for each arm (placebo, 6 mg deucravacitinib once-daily, and 12 mg deucravacitinib once-daily).
Boxplots for baseline protein level by response were generated with a horizontal line indicating the median protein level at baseline. For each treatment arm, a two-sample t-test was performed to test whether mean baseline serum protein level was different in responders versus non-responders. A Wilcoxon rank sum test (Mann-Whitney U test) was also performed to evaluate the difference in median serum protein level between responders and non-responders. Further, barplots of ACR20 and PASI75 response rate at week 16 for each treatment arm were generated for all subjects (protein level high and protein level low subjects, dichotomized according to median baseline level). Line plots of ACR20 and PASI75 response rate over time for each treatment arm were generated for protein level high and protein level low groups. Logistic regression models were also fit to evaluate associations between baseline protein levels and clinical outcome.
For certain analyses described herein, patients were dichotomized by median values (e.g., of the proteins listed above or other measures) into “high” and “low” groups, such that the high group had values above the median and the low group had values less than or equal to the median.
In addition, logistic regression models were fit for response measures ACR20 and PASI75, to generate the odds ratio of each of the deucravacitinib treatment arms versus placebo, in BD2-high and BD2-low groups. The following logistic regression models were used: • For ACR20 response status: ACR20 (Y/N)=treatment arm+BD2 group+treatment arm*BD2 group+TNF-inhibitor use+baseline weight (continuous). • For PASI75 response status: PASI75 (Y/N)=treatment arm+BD2 group+treatment arm*BD2 group+TNF-inhibitor use+baseline weight (continuous). […] FIGS. 26-31 are forest plots summarizing the logistic regression results of these models (for BD2 and other biomarkers described herein); each “N,” for “Placebo” and “Deucrava,” represents the number of responders in that group. […]

[1] = 6 mg QD, Above median baseline CRP level
[2] = 6 mg QD, Below median baseline CRP level
[3] = 12 mg QD, Above median baseline CRP level
[4] = 12 mg QD, Below median baseline CRP level

[2H]C([2H])([2H])NC(=O)c1nnc(NC(=O)C2CC2)cc1Nc1cccc(-c2ncn(C)n2)c1OC [deucravacitinib, 6-(cyclopropanecarboxamido)-4-((2-methoxy-3-(1-methyl-1H-1,2,4-triazol-3-yl)phenyl)amino)-N-(methyl-d3)pyridazine-3-carboxamide]
Interaction Term for ACR20 response (ratio of odds ratios) (6 mg QD vs placebo: BD2 high versus BD2 low, week 16): 3.16
Interaction Term: treatment arm*CRP group, ACR20 (6 mg QD vs placebo: CRP high versus CRP low): 0.786
Interaction Term: treatment arm*CRP group, ACR20 (6 mg QD vs placebo: CRP-high versus CRP-low, adjusted for baseline DAS28): 0.788
Interaction Term for ACR20 response (ratio of odds ratios) (6 mg QD vs placebo: IL-17A high versus IL-17A low, week 16): 3.10
Interaction Term for ACR20 response (ratio of odds ratios) (6 mg QD vs placebo: IL-19 high versus IL-19 low, week 16): 3.33
ACR20 response rate over time (6 mg QD, 12 mg QD, BD2-high and BD2-low groups (FIG. 10)): higher ACR20 response rates to deucravacitinib over time, compared to the response rate in the placebo arm, were observed in the BD2-high group but not in the BD2-low group
ACR20 response rate over time (6 mg QD, 12 mg QD, CRP-high and CRP-low groups (FIG. 41)): higher response rates than the placebo arm
ACR20 response rate over time (6 mg QD, 12 mg QD, IL-17A-high and IL-17A-low groups (FIG. 24)): higher ACR20 response rates over time were observed in the deucravacitinib treatment arms compared to placebo in IL-17A-high but not in IL-17A-low groups
ACR20 response rate over time (6 mg QD, 12 mg QD, IL-19-high and IL-19-low groups (FIG. 17)): higher ACR20 response rates to deucravacitinib over time compared to placebo were observed in IL-19-high but not in IL-19-low groups
Number of subjects (6 mg QD, ACR20 non-responder at week 16, above median baseline BD2 level): 20
Number of subjects (6 mg QD, ACR20 non-responder at week 16, above median baseline IL-17A level): 14
Number of subjects (6 mg QD, ACR20 non-responder at week 16, above median baseline IL-19 level): 17
Number of subjects (6 mg QD, ACR20 non-responder at week 16, below median baseline BD2 level): 14
Number of subjects (6 mg QD, ACR20 non-responder at week 16, below median baseline IL-17A level): 19
Number of subjects (6 mg QD, ACR20 non-responder at week 16, below median baseline IL-19 level): 16
Number of subjects (6 mg QD, ACR20 responder at week 16, above median baseline IL-17A level): 21
Number of subjects (6 mg QD, ACR20 responder at week 16, above median baseline IL-19 level): 21
Number of subjects (6 mg QD, ACR20 responder at week 16, below median baseline BD2 level): 7
Number of subjects (6 mg QD, ACR20 responder at week 16, below median baseline IL-17A level): 16
Number of subjects (6 mg QD, ACR20 responder at week 16, below median baseline IL-19 level): 16
Number of subjects, ACR20 Non-responder at week 16 [1]: 17
Number of subjects, ACR20 Responder at week 16 [1]: 19
Number of subjects, ACR20 Non-responder at week 16 [2]: 16
Number of subjects, ACR20 Responder at week 16 [2]: 18
Interaction Term for ACR20 response (ratio of odds ratios) (12 mg QD vs placebo: BD2 high versus BD2 low, week 16): 3.40
Interaction Term: treatment arm*CRP group, ACR20 (12 mg QD vs placebo: CRP high versus CRP low): 1.921
Interaction Term: treatment arm*CRP group, ACR20 (12 mg QD vs placebo: CRP-high versus CRP-low, adjusted for baseline DAS28): 1.930
Interaction Term for ACR20 response (ratio of odds ratios) (12 mg QD vs placebo: IL-17A high versus IL-17A low, week 16): 2.78
Interaction Term for ACR20 response (ratio of odds ratios) (12 mg QD vs placebo: IL-19 high versus IL-19 low, week 16): 7.35
Number of subjects (12 mg QD, ACR20 non-responder at week 16, above median baseline BD2 level): 10
Number of subjects (12 mg QD, ACR20 non-responder at week 16, above median baseline IL-19 level): 7
Number of subjects (12 mg QD, ACR20 non-responder at week 16, below median baseline BD2 level): 11
Number of subjects (12 mg QD, ACR20 non-responder at week 16, below median baseline IL-17A level): 15
Number of subjects (12 mg QD, ACR20 non-responder at week 16, below median baseline IL-19 level): 17
Number of subjects (12 mg QD, ACR20 responder at week 16, above median baseline BD2 level): 20
Number of subjects (12 mg QD, ACR20 responder at week 16, above median baseline IL-19 level): 21
Number of subjects (12 mg QD, ACR20 responder at week 16, below median baseline BD2 level): 10
Number of subjects (12 mg QD, ACR20 responder at week 16, below median baseline IL-19 level): 20
Number of subjects, ACR20 Non-responder at week 16 [3]: 9
Number of subjects, ACR20 Responder at week 16 [3]: 24
Number of subjects, ACR20 Non-responder at week 16 [4]: 16
Number of subjects, ACR20 Responder at week 16 [4]: 18
Odds Ratio, ACR20 response status (6 mg QD vs placebo, not adjusted for baseline disease activity): 2.456
Odds Ratio for ACR20 response (6 mg QD vs placebo, week 16): 2.46
Odds Ratio, ACR20 response status (6 mg QD vs placebo, week 16, adjusted for baseline DAS28): 2.443
Odds Ratio, ACR20 response status (12 mg QD vs placebo, not adjusted for baseline disease activity): 3.609
Odds Ratio for ACR20 response (12 mg QD vs placebo, week 16): 3.61
Odds Ratio, ACR20 response status (12 mg QD vs placebo, week 16, adjusted for baseline DAS28): 3.618
Odds Ratio for ACR20 response (deucravacitinib treatment arms combined vs placebo, week 16): 2.961
Odds Ratio, ACR20 response status (treatment arms combined vs placebo): 2.961
